From PMC3610419, “A Randomized, Double-Blind Placebo Controlled Trial of Balapiravir, a Polymerase Inhibitor, in Adult Dengue Patients” (The Journal of Infectious Diseases, 2012)
Entries after “also recorded” stand apart in the source; their conditions may differ.

Key:
[1] = Host immune response (plasma cytokines, whole blood transcripts) and virus sequence diversity in adult dengue patients; format: in vivo, human
Method: Plasma samples were collected for virological and immunological investigations every 12 hours, beginning immediately before commencement of treatment, during the next 6 study days and on one occasion on study day 7 and day 14 (virological markers) or day 7 and day 28 (immunological markers). Viremia was measured using a validated, internally controlled reverse-transcription polymerase chain reaction assay in a Good Clinical Laboratory Practice environment. The limit of detection was 357 copies/mL for DENV-1, 72 copies/mL for DENV-2, 357 copies/mL for DENV-3, and 720 copies/mL for DENV-4. The presence of NS1 in plasma was determined using the Platelia NS1 assay (Bio-Rad) and was performed according to the manufacturer's instructions. Plasma cytokine levels (interleukin 1β [IL-1β], IL-2, IL-4, IL-5, IL-6, IL-10, IL-12p70, IL-13, interferon γ [IFN-γ], and tumor necrosis factor α [TNF-α]) were measured using a Bio-Plex human cytokine assay (Bio-Rad) and a multiplex array reader (Luminex Systems, Bio-Plex workstation from Bio-Rad Laboratories) according to the manufacturer's instructions. Briefly, 50-μL plasma samples were incubated with monoclonal antibody coupled beads. […] Cytokine concentrations in samples were calculated by use of recombinant cytokines as standards and software provided by the manufacturer (Bio-Plex Manager). […]

DENV = test: Plasma viremia (RT-PCR) in adult dengue patients, randomized placebo-controlled trial; format: in vivo, human; details: for Median time to first viremia level of <1000 copies/mL (IQR): Kaplan-Meier estimate, inpatient period; for AUC viremia, Mean / AUC viremia, Median (IQR): hour 0 to hour 168
Method: Plasma samples were collected for virological and immunological investigations every 12 hours, beginning immediately before commencement of treatment, during the next 6 study days and on one occasion on study day 7 and day 14 (virological markers) or day 7 and day 28 (immunological markers). Viremia was measured using a validated, internally controlled reverse-transcription polymerase chain reaction assay in a Good Clinical Laboratory Practice environment. The limit of detection was 357 copies/mL for DENV-1, 72 copies/mL for DENV-2, 357 copies/mL for DENV-3, and 720 copies/mL for DENV-4. The presence of NS1 in plasma was determined using the Platelia NS1 assay (Bio-Rad) and was performed according to the manufacturer's instructions. Plasma cytokine levels (interleukin 1β [IL-1β], IL-2, IL-4, IL-5, IL-6, IL-10, IL-12p70, IL-13, interferon γ [IFN-γ], and tumor necrosis factor α [TNF-α]) were measured using a Bio-Plex human cytokine assay (Bio-Rad) and a multiplex array reader (Luminex Systems, Bio-Plex workstation from Bio-Rad Laboratories) according to the manufacturer's instructions. Briefly, 50-μL plasma samples were incubated with monoclonal antibody coupled beads. Complexes were washed twice, then incubated with biotinylated detection antibodies and, finally, labeled with streptavidin-phycoerythrin prior to analysis. Cytokine concentrations in samples were calculated by use of recombinant cytokines as standards and software provided by the manufacturer (Bio-Plex Manager). All research samples (for pharmacology, virology, and immunology) were collected and processed in the laboratory within 1 hour of venupuncture. All virological and immunological measurements and analyses were performed by analysts who were blind to the treatment assignment
Key viremia endpoints of the study were as follows: area under the log-transformed viremia curve (AUC) from first dose to the end of study day 7 (study hour 168), calculated on the basis of the trapezoidal rule with values below the limit of detection replaced by half of the detection limit; time to first viremia level of <1000 copies/mL until study day 7; and time to the first negative NS1 test result. Other predefined key endpoints included fever clearance time, defined as the time from the start of treatment to the start of the first 48-hour period during which axillary temperature remained <37.5°C; maximum hematocrit level; maximum percentage increase of hematocrit level from baseline; platelet count nadir; and lowest recorded quality of life score.
Time to event endpoints were compared between treatment groups on the basis of Cox regression and continuous endpoints on the basis of linear regression. Analyses were adjusted for the predose value of the respective endpoint; viremia and NS1 endpoints were additionally adjusted for dengue serotype. For all endpoints, we report P values of a trend test for a dose-response relationship with treatment entered as a continuous variable with values 0 (placebo), 1 (low-dose), and 2 (high-dose) into the regression model.

HCV = details: cited from earlier work
DENV-2 = test: Inhibition of DENV replication in Huh-7 cells, viral RNA by quantitative real time PCR; format: cell-based, dengue virus; details: Dengue virus, DENV2, Huh-7, 48 h, mean ± SD of 3 experiments
Method: (§1) ^a Each experiment was done in duplicate. The mean and standard deviation shown represent 3 independent (different date) experiments for each virus tested. Huh-7 cells were plated in 96-well plate at 10,000 cells/well in DMEM containing 10 % FBS in 100 μl volume one day prior to set up of the assay. The following day the medium was aspirated off and diluted virus at a multiplicity of infection of 0.5 or media was added to the assay and control wells, respectively. The virus was allowed to attach to the cells for two hours at 37°C in a humidified 5% C02 atmosphere while the dilutions of the test molecule were prepared. Test molecules (or medium as a control) were added after aspiration of the virus-containing media 2 hours post-infection in 3-fold dilutions at a final DMSO concentration of 1%. After 48 hrs, cells were washed and cellular RNA were isolated. In this study, we used a quantitative real time PCR method to quantitate dengue viral RNA in Huh-7 in the presence of inhibitors. Viral RNA and endogenous 18S rRNA control (Applied Bio System) was quantified by a real time PCR assay using the following primers. Dengue Reverse (Common to all the serotypes): 5’-[…]-3’, Dengue forward serotype 1: 5’-[…]-3’, Dengue forward serotype 2 or 3: 5’-[…]-3’, Dengue forward serotype 4: 5’-[…] -3’ and Dengue probe (Common to all the serotypes): 5'-/56-FAM/[…]/3BHQ_1/-3'. Taqman was performed in duplicate. IC50 was obtained using the following calculations. First ΔCt was calculated by subtracting 18S rRNA CT value from dengue RNA CT value. ΔCts from duplicate taqman assay were averaged. Then ΔΔCt was obtained by subtracting the average ΔCt of non-treated sample from the treated sample average ΔCt. Relative quantification was calculated using the following formula. Relative quantification = 2^-averageΔΔCT. The 50% inhibitory concentrations (EC50) were calculated using the sigmoidal dose-response model in Microsoft XLfit.

DENV-1 = test: as above; format: cell-based, dengue virus; details: Dengue virus, DENV1, Huh-7, 48 h, mean ± SD of 3 experiments
Method: as §1

DENV-3 = test: as above; format: cell-based, dengue virus; details: Dengue virus, DENV3, Huh-7, 48 h, mean ± SD of 3 experiments
Method: as §1

DENV-4 = test: as above; format: cell-based, dengue virus; details: Dengue virus, DENV4, Huh-7, 48 h, mean ± SD of 3 experiments
Method: as §1

[2] = 4500 mg twice daily of balapiravir, HCV-infected persons, cited from earlier work
[3] = High-dose (3000 mg twice a day, 5 days), n = 22
[4] = Low-dose (1500 mg twice a day, 5 days), n = 10

CC(C)C(=O)OC[C@@]1(N=[N+]=[N-])O[C@@H](n2ccc(N)nc2=O)[C@H](OC(=O)C(C)C)[C@@H]1OC(=O)C(C)C [Balapiravir]
kinetics of plasma cytokine concentrations and whole blood transcriptional profile ([1]; balapiravir treatment versus placebo): not attenuated | treatment-related effects on whole blood gene transcript abundance ([1]; baseline, study days 4 and 28, data not shown): no evidence of treatment-related effects | effect on virological markers (time to clearance of viremia, time to clearance of NS1 antigenemia, AUC) (DENV; 1500 mg or 3000 mg twice daily for 5 days versus placebo): did not measurably alter; also recorded: no measurable effect | Median time to first viremia level of <1000 copies/mL (IQR) (DENV; [3]): 4 (3–5) d | AUC viremia, Mean (DENV; [3]): 32.56 log10 copies/mL × d | AUC viremia, Median (IQR) (DENV; [3]): 31.98 (27.60–34.98) log10 copies/mL × d | Median time to first viremia level of <1000 copies/mL (IQR) (DENV; [4]): 5 (4, NA) d | AUC viremia, Mean (DENV; [4]): 34.49 log10 copies/mL × d | AUC viremia, Median (IQR) (DENV; [4]): 29.63 (27.41–39.86) log10 copies/mL × d | antiviral effect (reduction in plasma HCV RNA level) (HCV; 500 mg twice daily): no significant antiviral effect | clinical safety in extended courses (HCV; extended courses (2–3 months) in conjunction with pegylated interferon and ribavirin, HCV infection): clinical safety signals were detected | effect on plasma HCV levels (HCV; monotherapy twice per day for 14 days, chronic HCV): reduced plasma HCV levels in a dose- and time-dependent manner | tolerability (HCV; monotherapy twice per day for 14 days, doses up to 3000 mg, adult male patients): well-tolerated | IC50 (DENV-2; DENV-2 strain 32/0102 (clinical isolate), Huh-7 cells): 3 ± 0.5 µM | IC50 (DENV-2; DENV-2 strain 32/0140 (clinical isolate), Huh-7 cells): 1.9 ± 0.7 µM | IC50 (DENV-2; DENV-2 strain 33/0051 (clinical isolate), Huh-7 cells): 2 ± 0.2 µM | IC50 (DENV-2; DENV-2 strain 33/0178 (clinical isolate), Huh-7 cells): 2 ± 0.6 µM | IC50 (DENV-2; DENV-2 strain Th36, Huh-7 cells): 4.6 ± 0.4 µM | IC50 (DENV-1; DENV-1 strain FR28 (clinical isolate)): 6.8 ± 1.1 µM | IC50 (DENV-1; DENV-1 strain FR34 (clinical isolate)): 7 ± 2 µM | IC50 (DENV-1; DENV-1 strain FR37 (clinical isolate)): 7.2 ± 2 µM | IC50 (DENV-1; DENV-1 strain FR42 (clinical isolate)): 7.4 ± 2.3 µM | IC50 (DENV-1; DENV-1 strain Thsman): 8.8 ± 1.2 µM | IC50 (DENV-3; DENV-3 strain 33/0072 (clinical isolate), Huh-7 cells): 3 ± 0.4 µM | IC50 (DENV-3; DENV-3 strain 33/0096 (clinical isolate), Huh-7 cells): 3.4 ± 1.7 µM | IC50 (DENV-3; DENV-3 strain 33/0177 (clinical isolate), Huh-7 cells): 3.2 ± 0.9 µM | IC50 (DENV-3; DENV-3 strain 33/0253 (clinical isolate), Huh-7 cells): 4.4 ± 0.9 µM | IC50 (DENV-3; DENV-3 strain H87, Huh-7 cells): 3.7 ± 0.9 µM | IC50 (DENV-4; DENV-4 strain H241, Huh-7 cells): 11 ± 1 µM | IC50 (DENV-4; DENV-4 strain Phili/1567, Huh-7 cells): 2 ± 0.4 µM | IC50 (DENV-4; DENV-4 strain Senga/DA, Huh-7 cells): 6.5 ± 0.9 µM | IC50 (DENV-4; DENV-4 strain Venz/JQ, Huh-7 cells): 5.5 ± 1.3 µM | mean Cmin [2]: 21 µM | Cmax ([2]; read-out: mean Cmax): 88 µM
